Test results taken from patent publication US10471035B2, “Compositions and methods for using esters of meroterpenes and of other resveratrol analogues” (Sunny BioDiscovery, priority 2014, dated 2019).
Converted amounts (≈) assume the structure as drawn.

Assays:
[1] = system: RAR; assay: Cignal RAR reporter assay; format: cell-based; details: 0.3 μg/ml
Source text: Tissue irritation is a common side effect of retinoids. It is mediated, at least in part, by retinoid interaction with retinoic acid receptors (RARs; Thacher S M, Vasudevan J, Chandraratna R A. Therapeutic applications for ligands of retinoid receptors. Curr Pharm Des. 2000 January; 6(1):25-58; Kambayashi H, Odake Y, Takada K, Funasaka Y, Ichihashi M, Kato S. N-retinoyl-D-glucosamine, a new retinoic acid agonist, mediates topical retinoid efficacy with no irritation on photoaged skin. Br J Dermatol. 2005 December; 153 Suppl 2:30-6).

[2] = system: UVB-irradiated neonatal human dermal fibroblasts (HDF); assay: MTT cytotoxicity on UVB-irradiated HDF; format: cell-based; details: 10 μg/ml
Source text: Retinoids are used to remediate the effects of photoaging, caused by exposure to solar radiation (Tierney, E. P., Hanke C. W., “Recent Advances in Combination Treatments for Photoaging: Review of the Literature,” Dermatol. Surg., 2010, 36:829-40). Therefore, we compared the effect of bakuchiol and SBD.FA on confluent cultures of UVB-irradiated neonatal human dermal fibroblasts (HDF). The total irradiation dose (150mJ/cm2) was biologically relevant, i.e., equivalent to doses received by humans exposed to midday, clear sky, midsummer sun for a moderate period of time (Besaratinia, A., Kim, S. I., Pfeifer, G. P., “Rapid repair of UVA-induced oxidized purines and persistence of UVB-induced dipyrimidine lesions determine the mutagenicity of sunlight in mouse cells,” FASEB J., 2008, 22(7):2379-92). […] Under these conditions, the cytotoxicity at the highest concentration tested (10 μg/ml) compared to the water-treated control was 36% for bakuchiol and 8% for SBD.FA, as determined by the MTT method (Berridge M. V., Tan A. S., “Characterization of the Cellular Reduction of 3-(4,5-dimethylthiazol-2-yl)-2,5-diphenyltetrazolium bromide (MTT): Subcellular Localization, Substrate Dependence, and Involvement of Mitochondrial Electron Transport in MTT Reduction,” Arch. Biochem. Biophys. 1993, 303:474-482), using Molecular Devices microplate spectrophotometer MAX190 at 570 nm.

[3] = system: non-irradiated neonatal HDF; assay: Cytotoxicity on non-irradiated neonatal HDF monolayers; format: cell-based, human; details: 12.5 μg/ml
[4] = system: mouse melanoma cells (B16F10); assay: B16F10 melanoma growth and melanin; format: cell-based; details: Mus musculus, B16-F10; 2.5 μg/ml; read-out: inhibition of B16F10 melanocyte proliferation
Source text: Instead, cells cultured in the presence of SBD.SE grew slower and if allowed to reach monolayer, they become growth-arrested due to contact inhibition. […] Other retinoids, such as bexarotene, are known to have antineoplastic activity against cancers such as cutaneous T cell lymphoma.
The mechanism of action for this effect may be multifactorial and involve the inhibition of tyroinase and/or melanin secretion by melanocytes.

[5] = system: adult HEK; assay: Adult HEK proliferation; format: cell-based, human; details: Homo sapiens; 2.5 μg/ml
[6] = DPPH assay (free radical scavenging); format: biochemical; details: 520 nm
Source text: The objective of this experiment was to determine the antioxidant capacity of SBD.SE, using DPPH assay methodology. DPPH (2,2-diphenyl-1-picrylhydrazyl) is a stable free radical. The principle of the DPPH assay uses the reduction of the DPPH radical (purple) to diphenylpicrylhydrazine (yellow) as an indication of free radical scavenging capacity of a given test material (Schenk, G. H., Swieczkowski, N. K., “Colorimetric determination of pyrogallol and 2,6-dimethoxyphenol with diphenylpicrylhydrazyl,” Talanta, 1971, 18:230-4). Following the incubation of a test agent with DPPH solution, a reduction in absorbance at 520 nm compared to control is indicative of DPPH-scavenging. The degree of DPPH scavenging activity is expressed as % water control.

[7] = system: P. acnes; assay: MIC against planktonic P. acnes; format: cell-based, Propionibacterium acnes; details: Cutibacterium acnes; exponentially-growing planktonic bacteria, oxygen-free atmosphere; read-out: MIC (minimal inhibitory concentration)
Experimental: Serial dilutions of SBD.SE and SBD.FA were incubated with exponentially-growing planktonic P. acnes bacteria in oxygen-free atmosphere.
The MIC (minimal inhibitory concentration) for SBD.SE was determined to be about 30 μg/ml and for SBD.FA—about 60 μg/ml.

[8] = system: 3T3 cells; assay: 3T3 Neutral Red phototoxicity (OECD 432); format: cell-based; details: up to at least 100 μg/ml
Experimental: Phototoxicity is defined as light-activated cytotoxicity. […] The protocol followed in this example was based on the OECD 432 Guidelines. Four 96 well plates were seeded with 3T3 cells (Sigma, St. Louis, Mo.; cat. 93061524-1VL) at 10,000 cells per well in DMEM supplemented with 10% iron-fortified calf serum, and grown overnight in humidified atmosphere at 37° C. in 5% CO2. Serial dilutions of SBD.SE and chlorpromazine (positive control) were added to 2 plates each. […]
[…] Plates were returned to the incubator for 24 h, afterward the medium was removed, cells were rinsed with PBS and placed in Neutral Red medium at 50 μg/ml in which cells were incubated for 3 more hours. Wells were then washed with PBS and Neutral Red was extracted from cells with 1.0% Glacial Acetic Acid/50% Ethanol/49% H2O solution.
Following a 30-minute extraction with mixing, the absorbance of each well was measured at 570 nm with Molecular Devices SpectraMax® microplate spectrophotometer. P values were calculated using two-tailed Student's test and p=0.05 was set as borderline for statistical significance.

[9] = UVB irradiation, HPLC-MS profile; format: physicochemical; details: irradiated vs non-irradiated
Source text: Both compounds were irradiated with UVB light and their HPLC-MS profile was compared to their respective non-irradiated controls. FIGS. 2, 3, 6, and 7 show HPLC chromatograms of UVB-irradiated (lower portions) and non-irradiated samples (upper portions) of bakuchiol (FIGS. 2 and 3) and SBD.SE (FIGS. 6 and 7) detected at 254 nm (FIGS. 2 and 6) and 230 nm (FIGS. 3 and 7).

| MIC [7] | stability under UVB irradiation (HPLC-MS) [9] | Structure (SMILES) | increase of RAR-mediated transcription [1] | cytotoxicity compared to the water-treated control ([2]; human, 48 h) | cytotoxicity ([3]; human) | inhibition at 2.5 µg/mL [4] | inhibition at 2.5 µg/mL [5] | DPPH color (% Control) ([6]; 0.5 ug/ml) | DPPH color (% Control) ([6]; 2 ug/ml) | DPPH color (% Control) ([6]; 10 ug/ml) | cytotoxicity in absence and presence of UVB light [8] | cytotoxicity compared to the water-treated control ([2]; UVB 150mJ/cm2, added 24 h before, terminated 24 h after irradiation, MTT) | cytotoxicity ([3]; monolayers formed before addition) |
| --- | --- | --- | --- | --- | --- | --- | --- | --- | --- | --- | --- | --- | --- |
|  |  | CC1=C(/C=C/C(C)=C/C=C/C(C)=C/C(=O)O)C(C)(C)CCC1 [ATRA, all-trans retinoic acid, reference compound] | 460% |  |  |  |  |  |  |  |  |  |  |
| ~60 µg/mL (≈ 139 µM) |  | C=CC(C)(/C=C/c1ccc(OC(=O)/C=C/c2ccc(O)c(OC)c2)cc1)CCC=C(C)C (stereo not shown) [SBD.FA] |  | 8% | 8% | 53% | 21% | 102 % Control | 99 % Control | 60 % Control | lack of significant cytotoxicity |  |  |
|  | disintegrates | C=C[C@@](C)(/C=C/c1ccc(O)cc1)CCC=C(C)C [bakuchiol, reference compound] |  |  |  |  |  | 85 % Control | 92 % Control | 46 % Control |  | 36% | 39% |
